Assay results reported in patent US8039505B2, “Compounds for modulating T-cells” (University of Utah Research Foundation, priority 2007, dated 2011).
Several values for one entry are separate records, joined by “and”; a condition that tells them apart may be missing. Equal values may be shown once.

Assay: Pharmacokinetics in male Swiss Albino mouse, intravenous and oral (LC-MS/MS of plasma)
Type: in vivo
Details: for Individual plasma concentration: individual mice; for Mean plasma concentration: N = 3
Description: The pharmacokinetics of 1H-indole-3-carbaldehyde quinolin-8-ylhydrazone (Compound C3) was evaluated following intravenous (3 mg/kg) and oral (15 mg/kg) solution administration of 1H-indole-3-carbaldehyde quinolin-8-ylhydrazone in male Swiss Albino mouse. The effect of the Test Item, 1H-indole-3-carbaldehyde quinolin-8-ylhydrazone on complete blood count (CBC) was also evaluated. Pharmacokinetic phase consisted of two groups, Group 1 and Group 2. Animals in Group 1 were given intravenous bolus dose in a vehicle containing 5% N,N-dimethylacetamide, 5% CREMOPHOR™ EL and 90% Dextrose solution (5% w/v) and those in Group 2 were given oral solution dose in a vehicle, the composition of which was same as that of intravenous formulation. In addition, the effect of Test Item on complete blood count was evaluated following intravenous and oral dose administration along with its vehicle controls. A total of four groups were used each with 6 mice.
From the pharmacokinetic group, predose samples were collected from 3 animals in each group. Following dose administration terminal blood samples were collected at each of the following time points (in triplicate): 0.083 (only for intravenous), 0.25, 0.5, 1, 2, 4, 8, 12 and 24 hours. At each time point, approximately 500 μL of whole blood was withdrawn from the retro orbital sinus and collected in labeled tubes containing dipotassium EDTA as anticoagulant (20 μL of 200 mM K2 EDTA solution per mL of blood). Plasma was separated by centrifuging the whole blood at about 2500 g for 10 minutes at 4° C. within 1 h of sample collection. Separated plasma was stored below minus 50° C. until bioanalysis. A sensitive LC-MS/MS method was used for the quantitation of 1H-indole-3-carbaldehyde quinolin-8-ylhydrazone. The lower limit of quantitation was 1.04 ng/mL. For CBC evaluation, approximately 500 μL of blood was collected in labeled tubes containing dipotassium EDTA as anticoagulant (10 […]/mL of blood) after 48 h of dose administration from all animals.
A total of 57 mice were divided into an intravenous dose group of 30 mice (Group 1) and oral dose group of 27 mice (Group 2). Animals in Group 1 received intravenous bolus dose via tail vein at 3 mg/kg and animals in Group 2 received oral solution dose via gavage at 15 mg/kg. Three animals were administered the dose for each time point (intravenous: 10 time points; Oral: 9 time points). Terminal blood samples were collected from each mouse under light ether anesthesia and plasma was separated.
Animals in Group 1 were administered an intravenous bolus dose via the tail vein (dosing volume: 6 mL/kg). Animals in Group 2 received oral dose by gavage with an oral dosing needle (dosing volume: 10 mL/kg). Animals in the CBC evaluation group were treated same as above except the animals in control group received vehicle instead of formulation.
Pharmacokinetic group: Predose samples were collected from 3 animals in each group. Following dose administration terminal blood samples were collected at each of the following time points (in triplicate): 0.083 (only for intravenous), 0.25, 0.5, 1, 2, 4, 8, 12 and 24 hours. For each time point, approximately 500 μL of whole blood was withdrawn from the retro orbital sinus and collected in labeled tubes containing dipotassium EDTA as anticoagulant (20 μL of 200 mM K2 EDTA solution per mL of blood). Plasma was separated by centrifuging the whole blood at about 2500 g for 10 minutes at 4° C. within 1 h of sample collection. Separated plasma was stored below minus 50° C. until bioanalysis.
An LC-MS/MS method was developed and employed for the quantitation of 1H-indole-3-carbaldehyde quinolin-8-ylhydrazone in the mouse plasma samples. The samples were prepared for analysis following liquid-liquid extraction using amodiaquin as internal standard. The lower limit of quantitation was 1.04 ng/mL.
Pharmacokinetic parameters were calculated using non-compartmental analysis tool of WINNONLIN™ Enterprise software (Version 5.1.1). […]

[1] = mouse plasma, IV 3 mg/kg, 0.25 h samples, listed as ICQH, 3 mg/kg
[2] = mouse, intravenous bolus 3 mg/kg, 24 h, BLQ = below LLOQ 1.04 ng/mL
[3] = mouse, oral solution 15 mg/kg, 24 h, BLQ = below LLOQ 1.04 ng/mL

What does the source list for `C(=NNc1cccc2cccnc12)c1c[nH]c2ccccc12` [Compound C3, 1H-indole-3-carbaldehyde quinolin-8-ylhydrazone]?
Accepted conc. (repeat analysis) [1]: 199.60 c ng/mL and 225.35 c ng/mL; Initial conc. (repeat analysis) [1]: 132.16 ng/mL; Repeated conc. (repeat analysis) [1]: 225.35 ng/mL; Clearance as share of liver blood flow (mouse, IV 3 mg/kg): about 60 % of liver blood flow; Volume of distribution (mouse, IV 3 mg/kg): 4.28 Ukg; Volume of distribution relative to total body water (mouse, IV 3 mg/kg): about 6 times of total body water; Time till which plasma concentrations were quantifiable (mouse, following both intravenous (3 mg/kg) and oral (15 mg/kg) administration): 12 h; Individual plasma concentration (mouse, intravenous bolus 3 mg/kg, 0.083 h, LLOQ 1.04 ng/mL, 3 mg/kg): 2253.61 ng/mL and 1125.73 ng/mL and 75.62 b ng/mL; Individual plasma concentration (mouse, intravenous bolus 3 mg/kg, 0.083 h, LLOQ 1.04 ng/mL, listed as ICQH, 3 mg/kg): 2253.61 ng/mL and 1125.73 ng/mL and 75.62 ng/mL; Individual plasma concentration (mouse, intravenous bolus 3 mg/kg, 0.25 h, LLOQ 1.04 ng/mL, 3 mg/kg): 307.05 ng/mL and 225.35 ng/mL; Individual plasma concentration (mouse, intravenous bolus 3 mg/kg, 0.25 h, LLOQ 1.04 ng/mL, listed as ICQH, 3 mg/kg): 199.60 ng/mL and 307.05 ng/mL and 225.35 ng/mL; Individual plasma concentration (mouse, intravenous bolus 3 mg/kg, 0.5 h, LLOQ 1.04 ng/mL, 3 mg/kg): 388.25 ng/mL and 148.82 ng/mL and 339.56 ng/mL; Individual plasma concentration (mouse, intravenous bolus 3 mg/kg, 0.5 h, LLOQ 1.04 ng/mL, listed as ICQH, 3 mg/kg): 388.25 ng/mL and 148.82 ng/mL and 339.56 ng/mL; Individual plasma concentration (mouse, intravenous bolus 3 mg/kg, 1 h, LLOQ 1.04 ng/mL, 3 mg/kg): 184.80 ng/mL and 140.18 ng/mL; Individual plasma concentration (mouse, intravenous bolus 3 mg/kg, 1 h, LLOQ 1.04 ng/mL, listed as ICQH, 3 mg/kg): 184.80 ng/mL and 116.46 ng/mL and 140.18 ng/mL; Individual plasma concentration (mouse, intravenous bolus 3 mg/kg, 2 h, LLOQ 1.04 ng/mL, 3 mg/kg): 76.60 ng/mL and 47.02 ng/mL; Individual plasma concentration (mouse, intravenous bolus 3 mg/kg, 2 h, LLOQ 1.04 ng/mL, listed as ICQH, 3 mg/kg): 71.88 ng/mL and 76.60 ng/mL and 47.02 ng/mL; Individual plasma concentration (mouse, intravenous bolus 3 mg/kg, 4 h, LLOQ 1.04 ng/mL, 3 mg/kg): 27.25 ng/mL and 38.13 ng/mL; Individual plasma concentration (mouse, intravenous bolus 3 mg/kg, 4 h, LLOQ 1.04 ng/mL, listed as ICQH, 3 mg/kg): 42.37 ng/mL and 27.25 ng/mL and 38.13 ng/mL; Individual plasma concentration (mouse, intravenous bolus 3 mg/kg, 8 h, LLOQ 1.04 ng/mL, 3 mg/kg): 5.65 ng/mL and 11.10 ng/mL; Individual plasma concentration (mouse, intravenous bolus 3 mg/kg, 8 h, LLOQ 1.04 ng/mL, listed as ICQH, 3 mg/kg): 10.11 ng/mL and 5.65 ng/mL and 11.10 ng/mL; Individual plasma concentration (mouse, intravenous bolus 3 mg/kg, 12 h, BLQ = below LLOQ 1.04 ng/mL, 3 mg/kg): 2.20 ng/mL and BLQ; Individual plasma concentration (mouse, intravenous bolus 3 mg/kg, 12 h, BLQ = below LLOQ 1.04 ng/mL, listed as ICQH, 3 mg/kg): 1.68 ng/mL and 2.20 ng/mL and BLQ; Mean plasma concentration [2]: BLQ; Individual plasma concentration [2]: BLQ; Time of maximum concentration post-dose (mouse, oral solution 15 mg/kg): 1.0 h; Individual plasma concentration (mouse, oral solution 15 mg/kg, 0.25 h, LLOQ 1.04 ng/mL): 53.05 ng/mL and 113.38 ng/mL and 254.20 ng/mL; Individual plasma concentration (mouse, oral solution 15 mg/kg, 0.25 h, LLOQ 1.04 ng/mL, listed as ICQH): 53.05 ng/mL and 113.38 ng/mL and 254.20 ng/mL; Individual plasma concentration (mouse, oral solution 15 mg/kg, 0.5 h, LLOQ 1.04 ng/mL): 96.22 ng/mL and 72.56 ng/mL and 273.76 ng/mL; Individual plasma concentration (mouse, oral solution 15 mg/kg, 0.5 h, LLOQ 1.04 ng/mL, listed as ICQH): 96.22 ng/mL and 72.56 ng/mL and 273.76 ng/mL; Individual plasma concentration (mouse, oral solution 15 mg/kg, 1 h, LLOQ 1.04 ng/mL): 143.63 ng/mL and 32.21 ng/mL and 422.48 ng/mL; Individual plasma concentration (mouse, oral solution 15 mg/kg, 1 h, LLOQ 1.04 ng/mL, listed as ICQH): 143.63 ng/mL and 32.21 ng/mL and 422.48 ng/mL; Individual plasma concentration (mouse, oral solution 15 mg/kg, 2 h, LLOQ 1.04 ng/mL): 51.85 ng/mL and 95.13 ng/mL and 142.67 ng/mL; Individual plasma concentration (mouse, oral solution 15 mg/kg, 2 h, LLOQ 1.04 ng/mL, listed as ICQH): 51.85 ng/mL and 95.13 ng/mL and 142.67 ng/mL; Individual plasma concentration (mouse, oral solution 15 mg/kg, 4 h, LLOQ 1.04 ng/mL): 185.50 ng/mL and 87.82 ng/mL and 164.88 ng/mL; Individual plasma concentration (mouse, oral solution 15 mg/kg, 4 h, LLOQ 1.04 ng/mL, listed as ICQH): 185.50 ng/mL and 87.82 ng/mL and 164.88 ng/mL; Individual plasma concentration (mouse, oral solution 15 mg/kg, 8 h, LLOQ 1.04 ng/mL): 71.29 ng/mL and 78.06 ng/mL; Individual plasma concentration (mouse, oral solution 15 mg/kg, 8 h, LLOQ 1.04 ng/mL, listed as ICQH): 76.65 ng/mL and 71.29 ng/mL and 78.06 ng/mL; Individual plasma concentration (mouse, oral solution 15 mg/kg, 12 h, LLOQ 1.04 ng/mL): 4.05 ng/mL and 11.47 ng/mL and 11.21 ng/mL; Individual plasma concentration (mouse, oral solution 15 mg/kg, 12 h, LLOQ 1.04 ng/mL, listed as ICQH): 4.05 ng/mL and 11.47 ng/mL and 11.21 ng/mL; Mean plasma concentration [3]: BLQ; Individual plasma concentration [3]: BLQ
